Among the data in ChEMBL document CHEMBL1147860, “ABC synthesis and antitumor activity of a series of Annonaceous acetogenin analogs with a threo, trans, threo, trans, threo-bis-tetrahydrofuran core unit” (Bioorg Med Chem Lett, 2007) are IC50 values, retold here.

The test system of the test is HCT-116. Put plainly: Cytotoxicity against HCT116 cells. The test is classed as functional, cell-based. Conditions: Homo sapiens.

Each structure is given as a SMILES string.

`COCOCCCCCC[C@@H](O)[C@H]1CC[C@H]([C@H]2CC[C@H]([C@H](O)CCCCCCCCCC[C@@H](O)CC3=C[C@H](C)OC3=O)O2)O1` came in with an IC50 of 16 nM.

For `CCCCCCCC[C@@H](O)[C@H]1CC[C@H]([C@H]2CC[C@H]([C@H](O)CCCCCCCCCC[C@@H](O)CC3=C[C@H](C)OC3=O)O2)O1`, the IC50 worked out at 0.5 nM. Against the preceding compound, the IC50 is about 32-fold lower. Compound `C[C@H]1C=C(C[C@H](O)CCCCCCCCCC[C@@H](O)[C@H]2CC[C@H]([C@H]3CC[C@H]([C@H](O)CCCCCCO)O3)O2)C(=O)O1` gave an IC50 of 3.8 nM. On to `C[C@H]1C=C(C[C@H](O)CCCCCCCCCC[C@@H](O)[C@H]2CC[C@H]([C@H]3CC[C@H]([C@H](O)CCCCCCCCCCCO)O3)O2)C(=O)O1`, for which the IC50 is 0.6 nM. Compound `C[C@H]1C=C(CCCCCCCCCCC[C@@H](O)[C@H]2CC[C@H]([C@H]3CC[C@H]([C@H](O)CCCCCCCCCCCO)O3)O2)C(=O)O1` yielded an IC50 of 35 nM. As for `CCCCCCCCCCC(O)C1CCC(C2CCC(C(O)CCCCCCCC[C@H](O)CC3=C[C@@H](C)OC3=O)O2)O1` (stereo partly specified) [ASIMICIN], the figure is 8.8 nM.
